In patent publication US20110098177A1, “METHODS AND COMPOSITIONS OF PLANT MICRONUTRIENTS” (NOVUS INTERNATIONAL INC., priority 2006, published 2011):
Where two headings read alike, the source gives them in different places. Marks after values point to notes of the source that are not given here.

What was measured:
Type in all cases: in vivo
Aristotle bell pepper = conditions: 1 week after treatment, scale 0 = no visible injury, 10 = plant death
Summary of the method: (§1)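 Florida-47 tomato and Aristotle bell pepper transplants in 2-gal pots with low-nutrient medium (pH 5.36), drip-irrigated; products at three rates in deionized water plus non-ionic surfactant sprayed on newly matured leaves at 3 and 7 WAT. Toxicity scored at 4 WAT (0=no damage, 10=death); foliar tissue analysed at 6 WAT; marketable fruit harvested 4 times (tomato).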

Florida-47 tomato [1] = conditions: for Tomato toxicity: 1 week after treatment, scale 0 = no visible injury, 10 = plant death
Summary of the method: as §1

Florida-47 tomato [2] = test: Marketable yield per plant, greenhouse Fall 2007, tomato; conditions: for Marketable yield per plant, Tomato: foliar application at 3 and 7 WAT, rates not separated; for Tomato yield compared with control (in words): foliar applications, P<0.05
Protocol: The following experiments were performed in a green house during the fall of 2007 at GCREC, Balm, University of Florida. Fifteen products, at 3 different application rates were examined. The plot size was 2-gallon pots. Crop set-up, procedures and variables were as follows.
Transplants of ‘Florida-47’ tomato and ‘Aristotle’ bell pepper plants in the 4-true leaf stage (about 6 inches tall) were planted in 2-gal pots on Aug. 27, 2007. Pots were filled with a commercially available planting medium. This medium was selected based on the mineral composition of the products to be applied without providing significant nutritional inputs to the crops. Irrigation was provided with drip lines delivering between 0.50 and 0.33 gal/day/pot for tomato and bell pepper, respectively, and the crops were irrigated three times per day. No foliar pesticides were necessary.
There were four control treatments corresponding to each target micronutrient in which non-Fe, non-Mn, non-Zn or non-Cu pots received all other essential nutrients under non-limiting conditions.
Treatments were applied at three rates (high, medium and low) obtained from the estimated concentration of Zn, Fe, Cu, and Mn foliarly-applied in tomato and bell pepper in field situations (Table 1). Products were weighed and dissolved in 200 ml of deionized water with a non-ionic surfactant and applied to the newly-matured open leaves of each crop at 3 and 7 weeks after transplant (WAT). Treated pots were isolated during application to avoid cross-contamination of other treatments.
Medium nutrient concentration was determined 1 week before treatment. The mineral composition of the medium was 26.8 ppm NH4—N, 49 ppm NO3—N, 15.8 ppm P, 91.2 ppm K, 82.3 ppm Ca, 58.2 ppm Mg, 23.9 ppm Na, 125.6 ppm S, 1.33 ppm Fe, 0.39 ppm Mn, 0.35 ppm Zn, 0.05 pp, Cu, 0.04 ppm B, 0 ppm Mo, 0.73 ppm Al, and 12.1 ppm Si. The pH of the medium was 5.36 and the electric conductivity was 1.38 mS/cm. The foliar tissue analysis was performed at 6 WAT and the concentration of N, P, K, Mg, Ca, S, B, Zn, Mn, Fe, and Cu was determined by a commercial laboratory. Plant toxicity was determined at 4 WAT by using a 0-10 visual scale, where 0=no visible damage and 10=total plant death. Marketable fruit weight was collected 2 times in bell pepper and 4 times in tomato following USDA standards.
Data were analyzed using a general linear model, and means were separated using orthogonal contrasts at the 5% significance level.

Tygress tomato plants = test: Yields of tomato fruits, greenhouse (Examples 4-6); conditions: for Marketable yield: tomato fruits
Summary of the method: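 Tygress tomato in 2-gallon pots of micronutrient-poor medium (negligible Fe, Zn, Mn, Cu) in greenhouse; foliar treatments at 5 WAT in 200 mL/plant water with non-ionic surfactant. Newest non-applied leaves analysed 2 weeks before and after treatment; marketable fruit harvested three times from 10 WAT, graded. RCBD, 6 replications, LSD 5%.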

| Compound | Pepper toxicity (Aristotle bell pepper; High rate) | Pepper toxicity (Aristotle bell pepper; Low rate) | Pepper toxicity (Aristotle bell pepper; Medium rate) | Tomato toxicity (Florida-47 tomato [1]; High rate) | Tomato toxicity (Florida-47 tomato [1]; Low rate) | Tomato toxicity (Florida-47 tomato [1]; Medium rate) | Foliar injury (in words) (Florida-47 tomato [1]; copper concentration of 0.004% to 0.061% by weight, tomato and bell pepper stated together) | Marketable yield per plant, Tomato (Florida-47 tomato [2]) | Tomato yield compared with control (in words) (Florida-47 tomato [2]) | Toxic effect on the plant (in words) (Florida-47 tomato [1]; manganese concentration of 0.015% to 0.124% by weight, both crops) | Marketable tomato yield compared with non-treated control (in words) (Tygress tomato plants; BIOX-M at 1.23 lb/acre or more, BIOX-EDM at 2.0 lb/acre, Mn-sulfate at 1.0 lb/acre) | Marketable yield (Tygress tomato plants; Mn 0.31 lb/acre) | Marketable yield (Tygress tomato plants; Mn 0.62 lb/acre) | Marketable yield (Tygress tomato plants; Mn 1.23 lb/acre) | Marketable yield (Tygress tomato plants; Mn 2.46 lb/acre) | Marketable yields compared with the other Zn formulations (in words) (Tygress tomato plants; BIOX-Z at a concentration higher than 0.1 lb/acre) | Marketable yield (Tygress tomato plants; Zn 0.1 lb/acre) | Marketable yield (Tygress tomato plants; Zn 0.2 lb/acre) | Marketable yield (Tygress tomato plants; Zn 0.4 lb/acre) | Marketable yield (Tygress tomato plants; Zn 0.8 lb/acre) |
| --- | --- | --- | --- | --- | --- | --- | --- | --- | --- | --- | --- | --- | --- | --- | --- | --- | --- | --- | --- | --- |
| CSCCC(O)C(=O)[O-].CSCCC(O)C(=O)[O-].[Cu+2] (stereo not shown) [BIOX-Cu, Cu-HMTBA] | 0 | 0 | 0 | 0 | 0 | 0 | no foliar injury | 5.5* lb/plant | significantly increased | – | – | – | – | – | – | – | – | – | – | – |
| CSCCC(O)C(=O)[O-].CSCCC(O)C(=O)[O-].[Mn+2] (stereo not shown) [BIOX-M, Mn-HMTBA] | 0 | 0 | 0 | 0 | 0 | 0 | – | 5.8* lb/plant | significantly increased | no toxic effect | significantly higher than the non-treated control | 2.2 b lb/plant | 2.1 b lb/plant | 4.2 a lb/plant | 4.3 a lb/plant | – | – | – | – | – |
| CSCCC(O)C(=O)[O-].CSCCC(O)C(=O)[O-].[Zn+2] (stereo not shown) [BIOX-Z, Zn-HMTBA] | 0 | 0 | 0 | 0 | 0 | 0 | – | 2.9* lb/plant | significantly increased | – | – | – | – | – | – | statistically similar to the other Zn supplementation treatment formulations | 2.3 b lb/plant | 3.7 a lb/plant | 3.9 a lb/plant | 3.8 a lb/plant |
| EDTA chelated zinc [BIOX-EDZ] | 0 | 0 | 0 | 0 | 0 | 0 | – | – | – | – | – | – | – | – | – | – | – | – | 3.5 a lb/plant | – |
